# Measured values from patent publication US7858621B2 (Amorepacific Corporation, priority 2006, dated 2010).
# Target: T1, vanilloid receptor (Rattus norvegicus, UniProt O35433)
# T1 construct: DRG nerve cells from the primary culture of 2 days were equilibrated; endogenous in cells; host or cells: primary culture of dorsal root ganglion neurons from neonatal SD rats
# Assay: 45Ca influx test in cultured neonatal rat DRG neurons, inhibition of capsaicin response
# Format: cell-based
# Conditions: neonatal rat DRG neurons, capsaicin 0.5 μM, 45Ca influx; read-out: Antagonist Calcium Uptake Test (IC50)
# Outline: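 45Ca influx measured by scintillation counting of SDS-eluted neurons after 10 min at room temperature with test compound, 0.5 μM capsaicin (final) and 10 μCi/ml 45Ca in Ca/Mg-free HEPES-HBSS pH 7.4. Cells: primary DRG neurons from newborn SD rats, cultured 2 days with NGF and Ara-C.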
# T1 sequence (O35433 whole entry): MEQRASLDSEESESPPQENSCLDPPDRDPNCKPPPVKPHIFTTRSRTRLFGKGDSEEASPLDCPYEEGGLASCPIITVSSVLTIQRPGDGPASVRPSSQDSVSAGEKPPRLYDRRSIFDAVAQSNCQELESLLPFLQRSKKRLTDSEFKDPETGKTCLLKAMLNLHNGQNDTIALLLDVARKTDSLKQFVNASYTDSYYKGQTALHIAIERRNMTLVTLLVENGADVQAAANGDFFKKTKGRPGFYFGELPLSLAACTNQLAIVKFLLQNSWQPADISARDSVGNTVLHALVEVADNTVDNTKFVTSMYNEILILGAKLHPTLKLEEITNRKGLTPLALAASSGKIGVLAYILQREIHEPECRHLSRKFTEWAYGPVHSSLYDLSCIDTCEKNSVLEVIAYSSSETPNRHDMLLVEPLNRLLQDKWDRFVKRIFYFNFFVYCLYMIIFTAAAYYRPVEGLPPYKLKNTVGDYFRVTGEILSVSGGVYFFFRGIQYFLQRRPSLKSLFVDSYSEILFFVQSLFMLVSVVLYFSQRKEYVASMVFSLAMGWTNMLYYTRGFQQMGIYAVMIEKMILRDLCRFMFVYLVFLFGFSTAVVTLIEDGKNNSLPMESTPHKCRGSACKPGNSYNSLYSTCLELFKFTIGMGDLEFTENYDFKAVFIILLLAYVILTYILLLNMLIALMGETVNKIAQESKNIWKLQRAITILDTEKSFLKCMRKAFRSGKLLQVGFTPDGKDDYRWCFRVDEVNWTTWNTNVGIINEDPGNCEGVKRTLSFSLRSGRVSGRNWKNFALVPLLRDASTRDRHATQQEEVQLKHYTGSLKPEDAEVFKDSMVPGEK
row,IC50 [nM],Structure (SMILES)
1,420,"CS(=O)(=O)Nc1c(F)cc(CNC(=O)/C=C/c2ccc(C(F)(F)F)nc2-c2cccc(F)c2)cc1F [Example 201, N-(4-Methanesulfonylamino-3,5-difluoro-benzyl)-3-[2-(3-fluoro-phenyl)-6-trifluoromethyl-pyridin-3-yl]-acrylamide]"
2,35,"CCCCNc1nc(C(F)(F)F)ccc1/C=C/C(=O)NCc1cc(F)c(NS(C)(=O)=O)c(F)c1 [Example 202, N-(3,5-Difluoro-4-methanesulfonylamino-benzyl)-3-(2-butylamino-6-trifluoromethyl)-pyridin-3-yl-acrylamide]"
3,120,"CS(=O)(=O)Nc1c(F)cc(CNC(=O)/C=C/c2ccc(C(F)(F)F)nc2CCc2ccccc2)cc1F [Example 203, N-(3,5-Difluoro-4-methanesulfonylamino-benzyl)-3-(2-phenethyl-6-trifluoromethyl-pyridin-3-yl)-acrylamide]"
4,170,"COCCNc1nc(C(F)(F)F)ccc1/C=C/C(=O)NCc1cc(F)c(NS(C)(=O)=O)c(F)c1 [Example 204, N-(3,5-Difluoro-4-methanesulfonylamino-benzyl)-3-[2-(2-methoxy-ethylamino)-6-trifluoromethyl-pyridin-3-yl]-acrylamide]"
5,86,"CCCCc1nc(C(F)(F)F)ccc1/C=C/C(=O)NCc1cc(F)c(NS(C)(=O)=O)c(F)c1 [Example 205, 3-(2-Butyl-6-trifluoromethyl-pyridin-3-yl)-N-(3,5-difluoro-4-methanesulfonylamino-benzyl)-acrylamide]"
6,140,"CCCc1nc(C(F)(F)F)ccc1/C=C/C(=O)NCc1cc(F)c(NS(C)(=O)=O)c(F)c1 [Example 207, N-(3,5-Difluoro-4-methanesulfonylamino-benzyl)-3-(2-propyl-6-trifluoromethyl-pyridin-3-yl)-acrylamide]"
7,49,"CCCc1nc(C(F)(F)F)ccc1/C=C/C(=O)NCc1ccc(NS(C)(=O)=O)c(C)c1 [Example 208, N-(4-Methanesulfonylamino-3-methyl-benzyl)-3-(2-propyl-6-trifluoromethyl-pyridin-3-yl)-acrylamide]"
8,87,"CCCc1nc(C(F)(F)F)ccc1/C=C/C(=O)N[C@H](C)c1ccc(NS(C)(=O)=O)c(F)c1 [Example 209, (R)-3-(2-Propyl-6-trifluoromethyl-pyridin-3-yl)-N-[1-(3-fluoro-4-methanesulfonylamino-phenyl)-ethyl]-acrylamide]"
9,22,"CCC(C)Nc1nc(C(F)(F)F)ccc1/C=C/C(=O)N[C@H](C)c1ccc(NS(C)(=O)=O)c(F)c1 (stereo partly drawn) [Example 210, (R)-3-(2-sec-Butylamino-6-trifluoromethyl-pyridin-3-yl)-N-[1-(3-fluoro-4-methanesulfonylamino-phenyl)-ethyl]-acrylamide]"
10,62,"CCC(C)Cc1nc(C(F)(F)F)ccc1/C=C/C(=O)N[C@H](C)c1ccc(NS(C)(=O)=O)c(F)c1 (stereo partly drawn) [Example 211, (R)-3-[2-(2-Methyl-butyl)-6-trifluoromethyl-pyridin-3-yl]-N-[1-(3-fluoro-4-methanesulfonylamino-phenyl)-ethyl]-acrylamide]"
11,110,"COCCNc1nc(C(F)(F)F)ccc1/C=C/C(=O)N[C@H](C)c1ccc(NS(C)(=O)=O)c(F)c1 [Example 212, (R)—N-[1-(3-Fluoro-4-methanesulfonylamino-phenyl)-ethyl]-3-[2-(2-methoxy-ethylamino)-6-trifluoromethyl-pyridin-3-yl]-acrylamide]"
12,28,"CCCCNc1nc(C(F)(F)F)ccc1/C=C/C(=O)N[C@H](C)c1ccc(NS(C)(=O)=O)c(F)c1 [Example 213, (R)—N-[1-(3-Fluoro-4-methanesulfonylamino-phenyl)-ethyl]-3-(2-butylamino)-6-trifluoromethyl-pyridin-3-yl-acrylamide]"
13,98,"CCCCCc1nc(C(F)(F)F)ccc1/C=C/C(=O)NCc1cc(C)c(NS(C)(=O)=O)c(F)c1 [Example 214, N-(3-Fluoro-4-methanesulfonylamino-5-methyl-benzyl)-3-(2-pentyl-6-trifluoromethyl)-pyridin-3-yl-acrylamide]"
14,54,"CCCCCc1nc(C(F)(F)F)ccc1/C=C/C(=O)N[C@H](C)c1ccc(NS(C)(=O)=O)c(F)c1 [Example 215, (R)—N-[1-(3-Fluoro-4-methanesulfonylamino-phenyl)-ethyl]-3-(2-pentyl-6-trifluoromethyl)-pyridin-3-yl-acrylamide]"
15,2000,"CCCS(=O)(=O)c1nc(C(F)(F)F)ccc1C=CC(=O)NCc1ccc(NS(C)(=O)=O)c(C)c1 [Example 216, N-(4-Methanesulfonylamino-3-methyl-benzyl)-3-[2-(propane-1-sulfonyl)-6-trifluoromethyl-pyridin-3-yl]-acrylamide]"
16,130,"CC(C)Nc1nc(C(F)(F)F)ccc1/C=C/C(=O)NCc1cc(F)c(NS(C)(=O)=O)c(F)c1 [Example 217, N-(3,5-Difluoro-4-methanesulfonylamino-benzyl)-3-(2-isopropylamino-6-trifluoromethyl-pyridin-3-yl)-acrylamide]"

row,IC50 [nM],Structure (SMILES)
1,46,"CC(C)Nc1nc(C(F)(F)F)ccc1/C=C/C(=O)N[C@H](C)c1ccc(NS(C)(=O)=O)c(F)c1 [Example 218, (R)—N-[1-(3-Fluoro-4-methanesulfonylamino-phenyl)-ethyl]-3-(2-isopropylamino-6-trifluoromethyl-pyridin-3-yl)-acrylamide]"
2,73,"Cc1cc(CNC(=O)/C=C/c2ccc(C(F)(F)F)nc2NC(C)C)ccc1NS(C)(=O)=O [Example 219, 3-(2-Isopropylamino-6-trifluoromethyl-pyridin-3-yl)-N-(4-methanesulfonylamino-3-methyl-benzyl)-acrylamide]"
3,71,"Cc1cc(CNC(=O)/C=C/c2ccc(C(F)(F)F)nc2NC(C)C)cc(F)c1NS(C)(=O)=O [Example 220, N-(3-Fluoro-4-methanesulfonylamino-5-methyl-benzyl)-3-(2-isopropylamino-6-trifluoromethyl-pyridin-3-yl)-acrylamide]"
4,23,"C#Cc1cc(CNC(=O)/C=C/c2ccc(C(F)(F)F)nc2NCCC)cc(F)c1NS(C)(=O)=O [Example 221, N-(3-Ethynyl-5-fluoro-4-methanesulfonylamino-benzyl)-3-(2-propylamino-6-trifluoromethyl-pyridin-3-yl)-acrylamide]"
5,55,"CCCNc1nc(C(F)(F)F)ccc1/C=C/C(=O)NCc1cc(C)c(NS(C)(=O)=O)c(F)c1 [Example 223, N-(3-Fluoro-4-methanesulfonylamino-5-methyl-benzyl)-3-(2-propylamino-6-trifluoromethyl-pyridin-3-yl)-acrylamide]"
6,16,"CCCNc1nc(C(F)(F)F)ccc1/C=C/C(=O)N[C@H](C)c1ccc(NS(C)(=O)=O)c(F)c1 [Example 224, (R)—N-[1-(3-Fluoro-4-methanesulfonylamino-phenyl)-ethyl]-3-(2-propylamino-6-trifluoromethyl-pyridin-3-yl)-acrylamide]"
7,52,"CCCNc1nc(C(F)(F)F)ccc1/C=C/C(=O)NCc1ccc(NS(C)(=O)=O)c(C)c1 [Example 225, N-(4-Methanesulfonylamino-3-methyl-benzyl)-3-(2-propylamino-6-trifluoromethyl-pyridin-3-yl)-acrylamide]"
8,85,"CC(C)Cc1nc(C(F)(F)F)ccc1/C=C/C(=O)NCc1cc(F)c(NS(C)(=O)=O)c(F)c1 [Example 226, N-(3,5-Difluoro-4-methanesulfonylamino-benzyl)-3-(2-isobutyl-6-trifluoromethyl-pyridin-3-yl)-acrylamide]"
9,19,"CC(C)Nc1nc(C(F)(F)F)ccc1/C=C/C(=O)N[C@H](C)c1cc(F)c(NS(C)(=O)=O)c(F)c1 [Example 227, (R)—N-[1-(3,5-Difluoro-4-methanesulfonylamino-phenyl)-ethyl]-3-(2-isopropylamino-6-trifluoromethyl-pyridin-3-yl)-acrylamide]"
10,12,"CCCCc1nc(C(F)(F)F)ccc1/C=C/C(=O)N[C@H](C)c1cc(F)c(NS(C)(=O)=O)c(F)c1 [Example 228, (R)-3-(2-Butyl-6-trifluoromethyl-pyridin-3-yl)-N-[1-(3,5-difluoro-4-methanesulfonylamino-phenyl)-ethyl]-acrylamide]"
11,15,"CCCNc1nc(C(F)(F)F)ccc1/C=C/C(=O)N[C@H](C)c1cc(F)c(NS(C)(=O)=O)c(F)c1 [Example 229, (R)—N-[1-(3,5-Difluoro-4-methanesulfonylamino-phenyl)-ethyl]-3-(2-propylamino-6-trifluoromethyl-pyridin-3-yl)-acrylamide]"
12,76,"C#Cc1cc(CNC(=O)/C=C/c2ccc(C(F)(F)F)nc2C(C)C)cc(F)c1NS(C)(=O)=O [Example 231, N-(3-Ethynyl-5-fluoro-4-methanesulfonylamino-benzyl)-3-(2-isopropyl-6-trifluoromethyl-pyridin-3-yl)-acrylamide]"
13,190,"CC(C)c1nc(C(F)(F)F)ccc1/C=C/C(=O)NCc1cc(F)c(NS(C)(=O)=O)c(F)c1 [Example 232, N-(3,5-Difluoro-4-methanesulfonylamino-benzyl)-3-(2-isopropyl-6-trifluoromethyl-pyridin-3-yl)-acrylamide]"
14,80,"Cc1cc(CNC(=O)/C=C/c2ccc(C(F)(F)F)nc2C(C)C)ccc1NS(C)(=O)=O [Example 233, N-(4-methanesulfonylamino-3-methyl-benzyl)-3-(2-isopropyl-6-trifluoromethyl-pyridin-3-yl)-acrylamide]"
15,41,"CC(C)c1nc(C(F)(F)F)ccc1/C=C/C(=O)N[C@H](C)c1ccc(NS(C)(=O)=O)c(F)c1 [Example 234, (R)—N-[1-(3-Fluoro-4-methanesulfonylamino-phenyl)-ethyl]-3-(2-isopropyl-6-trifluoromethyl-pyridin-3-yl)-acrylamide]"
